Experimental data reported in patent US10253086B2, “CD20 therapies, CD22 therapies, and combination therapies with a CD19 chimeric antigen receptor (CAR)-expressing cell” (Novartis AG, priority 2015, dated 2019).

Key:
[1] = RAD001 PK analysis in tumor bearing mice; format: in vivo, NSG mice
Method: (§1) RAD001 dosing: A concentrated micro-emulsion of 50 mg equal to 1 mg RAD001 was formulated and then resuspended in D5W (dextrose 5% in water) at the time of dosing. Mice were orally dosed daily (via oral gavage) with 200 μl of the desired doses of RAD001.
PK analysis: Mice were dosed daily with RAD001 starting 7 days post tumor implantation. Dosing groups were as follows: 0.3 mg/kg, 1 mg/kg, 3 mg/kg, and 10 mg/kg. Mice were bled on days 0 and 14 following the first and last dose of RAD001, at the following time points for PK analysis: 15 minutes, 30 minutes, 1 hour, 2 hours, 4 hours, 8 hours, 12 hours, and 24 hours.
(§2) The expansion and pharmacokinetics of RAD001 was tested in NSG mice with NALM6-luc tumors.

[2] = test system: NALM6 (Nalm-6); assay: 4 day co-culture proliferation of huCART19 with RAD001; format: cell-based, human
Method: To evaluate the functionality of CARTs, the T cells are thawed and counted, and viability is assessed by Cellometer. The number of CAR-positive cells in each culture is normalized using non-transduced T cells (UTD). The impact of RAD001 on CARTs was tested in titrations with RAD001, starting at 50 nM. The target cell line used in all co-culture experiments is NALM6 (Nalm-6), a human pre-B cell acute lymphoblastic leukemia (ALL) cell line expressing CD19 and transduced to express luciferase.
For measuring the proliferation of CARTs, T cells are cultured with target cells at a ratio of 1:1. The assay is run for 4 days, when cells are stained for CD3, CD4, CD8 and CAR expression. The number of T cells is assessed by flow cytometry using counting beads as reference.
The proliferative capacity of CART cells was tested in a 4 day co-culture assay.

[3] = test system: CAR T cells; assay: huCAR19 CAR T cell expansion in vivo with RAD001; set-up: species or system NSG mice; details: lowest doses of RAD001, daily oral
Method: CAR T cell dosing: Mice were administered 5×10^6 CAR T cells 7 days after tumor implantation. Cells were partially thawed in a 37 degree Celsius water bath and then completely thawed by the addition of 1 ml of cold sterile PBS to the tube containing the cells. The thawed cells were transferred to a 15 ml falcon tube and adjusted to a final volume of 10 mls with PBS. The cells were washed twice at 1000 rpm for 10 minutes each time and then counted on a hemocytometer. T cells were then resuspended at a concentration of 50×10^6 CAR T cells per ml of cold PBS and kept on ice until the mice were dosed. The mice were injected intravenously via the tail vein with 100 μl of the CAR T cells for a dose of 5×10^6 CAR T cells per mouse. Eight mice per group were treated either with 100 μl of PBS alone (PBS), or humanized CD19 CAR T cells.
as §1
Based on these doses, huCAR19 CAR T cells were dosed with and without RAD001 to determine the proliferative ability of these cells. The highest dose used was 3 mg/kg based on the levels of RAD001 in the blood 24 hours after dosing. […] Mice were monitored via FACS for T cell expansion. […]

[4] = test system: CAR-expressing, transduced T cells; assay: CART co-culture with NALM6 cells in the presence of RAD001; format: cell-based; details: low doses of RAD001 (nM); 4 days of co-culture with NALM6
Method: CARTs were co-cultured with NALM6 (Nalm-6) cells in the presence of different concentrations of RAD001 (nM). The number of CAR-positive CD3-positive T cells (black) and total T cells (white) was assessed after 4 days of co-culture.

[5] = test system: NALM6-luc tumors; assay: RAD001 alone on growth of NALM6-luc tumors; format: in vivo, NSG mice; details: daily oral dosing of RAD001 alone
Method: NALM6-luc cells: The NALM6 human acute lymphoblastic leukemia (ALL) cell line was developed from the peripheral blood of a patient with relapsed ALL. The cells were then tagged with firefly luciferase. These suspension cells grow in RPMI supplemented with 10% heat inactivated fetal bovine serum.
Mice: 6 week old NSG (NOD.Cg-PrkdcscidIl2rgtm1Wjl/SzJ) mice were received from the Jackson Laboratory (stock number 005557).
Tumor implantation: NALM6-luc cells were grown and expanded in vitro in RPMI supplemented with 10% heat inactivated fetal bovine serum. The cells were then transferred to a 15 ml conical tube and washed twice with cold sterile PBS. NALM6-luc cells were then counted and resuspended at a concentration of 10×10^6 cells per milliliter of PBS. The cells were placed on ice and immediately (within one hour) implanted in the mice. NALM6-luc cells were injected intravenously via the tail vein in a 100 μl volume, for a total of 1×10^6 cells per mouse.
as §1, §2

[6] = test system: CAR T cells; assay: In vivo proliferation of humanized CD19 CART cells with and without RAD001 dosing; details: RAD001 0.003 mg/kg daily with huCTL019; versus normal level of huCAR19 proliferation
Method: FIGS. 62A and 62B show in vivo proliferation of humanized CD19 CART cells with and without RAD001 dosing. […] Circles denote PBS; squares denote huCTL019; triangles denote huCTL019 with 3 mg/kg RAD001; inverted triangles denote huCTL019 with 0.3 mg/kg RAD001; diamonds denote huCTL019 with 0.03 mg/kg RAD001; and circles denote huCTL019 with 0.003 mg/kg RAD001.

[7] = test system: r/r B-ALL; details: cited from earlier work

concentration of RAD001 in blood ([1]; 24 hours after the final dose)	concentration at 24 h ([1]; NSG, mouse, whole blood, oral, 24 hours after dosing, 0.3 mg/kg, day 0 and day 14, read-out: RAD001 concentrations in the blood) [nM]	stability in the blood of tumor bearing mice ([1]; mouse, in vivo)	Compound	proliferation of huCART19 cells ([2]; 0.0032 and 0.016 nM RAD001)	RAD001 concentration at which huCART19 cells expanded ([2]; lesser extent at higher concentrations)	proliferation of the CAR T cells in vivo [3]	proliferation of CAR-expressing, transduced T cells [4]	growth of NALM6-luc tumors [5]	CAR T cell proliferation in vivo [6]	share of relapses that are CD19-negative [7]
above 10 nM	> 10	fairly stable in the blood	CO[C@H]1C[C@@H]2CC[C@@H](C)[C@@](O)(O2)C(=O)C(=O)N2CCCC[C@H]2C(=O)O[C@H]([C@H](C)C[C@@H]2CC[C@@H](OCCO)[C@H](OC)C2)CC(=O)[C@H](C)/C=C(\C)[C@@H](O)[C@@H](OC)C(=O)[C@H](C)C[C@H](C)/C=C/C=C/C=C/1C [RAD001, everolimus]	higher than observed without the addition of RAD001	less than 0.016 nM	enhanced proliferation of the CAR T cells	enhanced	did not have an impact on the growth of NALM6-luc tumors	enhancement in CAR T cell proliferation	
			blinatumomab: bi-specific anti-CD19/CD3 antibody combining an anti-CD19 scFv with an anti-CD3 scFv							about 30%
